Broadly, the melting point is the temperature of the solid-liquid transition.

Turning to `N#Cc1ncc(Cl)cc1OC1SCC(O)C(O)C1O` (stereo not drawn), the melting point was 122 °C.

In turn, `N#Cc1ccc(-c2ccc(-c3ccco3)o2)cc1` showed a melting point of 104 to 105 °C. With `CCN(CC)CCOc1ccc(C(O)(CC)c2ccccc2)cc1` (stereo not drawn) the figure was 113 °C; with `c1ccc(OCCSCc2nnc(-c3ccc(OCCCN4CCOCC4)cc3)o2)cc1`, 65 °C.

In turn, `CC1(C)COC(=O)N1c1nc(-c2csc(C#N)c2)cs1` yielded a melting point of 249 to 252 °C. Next, `CCCCS(=O)(=O)Nc1ccccc1COc1cccc2cccnc12`: 88 to 89 °C.

`CCn1c(=O)c2[nH]c(/C=C/c3ccc(N(C)C)cc3)nc2n(CC)c1=O` had a melting point of over 300 °C. Next, `CC1(C)CC(=O)N(CCOC(OCCN2C(=O)CC(C)(C)CC2=O)(C(=O)c2ccccc2)c2ccccc2)C(=O)C1`: 130 °C; `COc1cc(Nc2nccc(Nc3ccc(OCCCO)cc3)n2)cc(OC)c1OC`: 69 °C. With `O=C(c1ccc(-c2ccc(NC(=S)Nc3ccccc3)cc2)o1)N1CCN2CCC1CC2` the figure was 171 to 175 °C; with `CON=CC(C)(C)NC(=O)c1c(Cl)cccc1C(=O)Nc1ccc(OC(F)(F)F)cc1C`, 197 °C. With `NS(=O)(=O)c1cc2ccc(=O)[nH]c2s1` the figure was 306 to 308 °C; with `O=C(Nc1ccc2oc3c(c2c1)CCCC3)c1ccc(Cl)cc1`, 214 °C; with `COc1ccc(-c2nc(-c3ccc(Cl)cc3)ncc2C(=O)N2CCOCC2)cc1OC`, 168 °C. Consider `NC(=O)CN(C(=O)CCCOc1ccc([N+](=O)[O-])c(C=O)c1)C1CCCCC1`, for which the melting point was in the range of 104 to 105 °C. With `O=C(O)c1cnc2ccn(Cc3ccccc3)n2c1=O` the figure was 198 to 199 °C.

Regarding `CC(C)(Oc1ccc(NC(=O)Cc2ccccc2)cc1)C(=O)O`, the melting point was in the range of 173 to 175 °C. With `CCOC(=O)C1=C(c2ccc(OC)c(OC)c2)c2ccccc2C1=O` the figure was 130 °C; with `O=c1oc(C(F)(F)F)ccc1-c1ccc(F)cc1F`, 98 to 100 °C; with `O=CN1CCN=C1CC(c1ccccc1)c1ccccc1`, 105 to 107 °C. With `CC1(C)N=C(O)N=C(NC(=O)c2nc(Cl)c(N)nc2N)N1` the figure was 266 to 268 °C. The compound `CN1Cc2c(I)ncn2-c2cccc(Br)c2C1=O` displayed a melting point of 203 to 204 °C. Next, `CC1CCCN(C(=O)c2ccc([N+](=O)[O-])cc2)C1` (stereo not drawn): 70.2 to 71.3 °C; `COc1nc(N)nc2c1ncn2[C@H]1C[C@H](O)[C@@H](CO)O1`: 155 to 157 °C. `O=C(CC(=O)C1CC1)c1ncc(Cl)cc1Cl` came in with a melting point of 50.2 to 52.7 °C.

As to `CCOC(=O)c1c(CO)c(C)n(C)c1C`, the melting point was 184 to 186 °C. With `CC(C)CN1C(=O)[C@H](CC(=O)O)O[C@@H](c2ccccc2Cl)c2cc(Cl)ccc21` the figure was 183 to 186 °C; with `Cc1ccccc1Cc1ccc(-c2cnn3c(O)ncnc23)cc1`, 274 to 279 °C; with `Cc1cc(-n2cncn2)c2cccc(OCc3c(Cl)ccc(S(=O)(=O)N4CCC[C@H]4C(=O)NCCCN4CCCC4)c3Cl)c2n1`, 86 °C. `CC(=O)NCCn1c(C)ccc1C` yielded a melting point of 106 to 107 °C.

`COC(=O)[C@H]1C[C@H](NC(=O)c2cccc(CNC(=O)OC(C)(C)C)c2)c2c(Cl)cc(Cl)cc2N1` (relative stereo) yielded a melting point of 222 to 223 °C.

Consider `O=c1c2c(Cc3ccccc3[N+](=O)[O-])n[nH]c2c2cccnc2n1-c1cccc(C(F)(F)F)c1`, for which the melting point fell in the range of 282 to 284 °C.

In turn, `c1ccc(OCCSCc2nnc(-c3ccc(OCCN4CCSCC4)cc3)o2)cc1` came in with a melting point of 60 °C.

Turning to `COC(=O)[C@@](C#N)(CCN(C)C)C(c1ccccc1OC)c1cccc2ccccc12` (single isomer, unassigned), the melting point was in the range of 142 to 144 °C. Next, `c1ccc(-c2cnc3ncnn3c2)cc1`: 164 to 167 °C; `CCOC(=O)c1nc2c(=O)[nH]c3cc(C(F)(F)F)ccc3n2c1CP(=O)(O)O`: over 250 °C; `COc1c(Nc2ncc(Cl)c(Nc3ccccc3S(=O)(=O)N3CCC(O)C3)n2)ccc2c1CCCC(NCCO)C2` (stereo not drawn): 90 to 92 °C.

The compound `CC(Cl)(Cl)C(NC(=O)c1ccc(Cl)cc1)NC(=NC#N)Nc1cccnc1Cl` (stereo not drawn) gave a melting point of 135 to 137 °C. Next, `CC(N)=Nc1ccc(Cl)cc1Cc1ccccc1F`: 115 to 119 °C; `N#Cc1c(Cc2ccccc2)n[nH]c1N`: 183 to 185 °C. With `O=S(=O)(Cl)c1ccc(Cl)c(CBr)c1Cl` the figure was 90 to 92 °C. `Cc1ccc(N2CCC(CCOc3ccc(-c4nc(C(C)C)no4)cc3)CC2)nn1` returned a melting point of 135 °C. Next, `COC(=O)NCc1nc(C(C)C)c(Sc2cc(Cl)cc(Cl)c2)n1C`: 138 to 139 °C; `C=CC(=O)N(C1CC(C)(C)NC(C)(C)C1)C1CC(C)(C)NC(C)(C)C1`: 115 to 118 °C; `COC(=O)c1ccccc1-c1ccc(C(=C2CC(C)(C)CC(C)(C)C2)c2ccc(O)cc2)cc1`: 177 to 178 °C. Next, `O=[N+]([O-])c1cnccc1NCc1ccccc1F`: 108 to 109 °C; `CC(=O)OC1CCC2(C)C(CCC3C2CCC2(C)C(C(C)=O)CCC32)C1` (stereo not drawn): 141 to 142 °C.

Consider `Cc1c(C)c2c(c(C)c1NCc1ccccc1)C(c1cccc(C3OCCO3)c1)CO2` (stereo not drawn), for which the melting point lay in the range of 97 to 99 °C. Next, `CC(C)(C)c1cc(Nc2ccc(CCC(=O)O)cc2)cc(C(C)(C)C)c1O`: 140 to 142 °C. With `C=C(C(=O)OC)[C@@H](O)c1ccccc1` the figure was 48 °C; with `COc1cc2c(cc1C)C(CCCN1CCN(C)CC1)(c1ccccc1F)C(=O)N2S(=O)(=O)c1ccc(OC(C)C)cc1` (stereo not drawn), 70 °C. With `COCOc1ccccc1-c1ccc(-c2ccc(C(=O)O)cc2)cc1-c1ccc2c(c1)C(C)(C)CCC2(C)C` the figure was 132 to 135 °C.

Compound `CCOCc1nnc2c(C(F)(F)F)c(Cl)ccn12` displayed a melting point of 104 °C. Next, `O=C(O)c1ccc2c(c1)CCCS2(=O)=O`: 246 to 249 °C; `COc1cc(O)c(C)c(C(=O)O)c1Br`: 79 to 80 °C; `Cn1c(-c2ccccc2)nc(CN2CCN(c3ccc(O)cc3)CC2)cc1=O`: 206 to 207 °C. Next, `COc1ccc(C=CC(=O)Nc2ccc(C(C)(C)C)cc2)cc1`: 158 to 160 °C; `CCCc1cc(=O)oc2c(C=O)c(O)c3c(c12)OC(C)(C)C=C3`: 116 to 117 °C; `CCc1ccc(C#CC(C)N(O)C(=O)NC)cc1` (stereo not drawn): 126 to 128 °C. Compound `CC(=O)Oc1ccc(C(=O)O)cc1C` had a melting point of 169 to 171 °C. Regarding `O=C(NNS(=O)(=O)c1ccccc1)c1ccc(Cl)cc1Cl`, the melting point lay within 168 to 170 °C. With `CC=C(Cl)C(Cl)CC(O)(Cn1cncn1)C1(Cl)CC1` (stereo not drawn) the figure was 79 to 80 °C; with `CCN1C(=O)C(C)(C)C(=O)N(C)c2cc(CN(CCN3C(=O)CCc4ccccc43)Cc3cccnc3C)ccc21`, 130 to 131 °C; with `O=C(OCN1C(=O)c2ccccc2S1(=O)=O)c1c(Cl)cncc1Cl`, 159 to 160 °C.

`c1ccc(-c2nc(-c3ccc4cc(OCc5nnn[nH]5)ccc4c3)cs2)cc1` displayed a melting point of 226 to 228 °C. In the case of `CC1=CC(=O)N(c2cc(NS(=O)(=O)c3cccc4c(N(C)C)cccc34)cc(N3C(=O)C=C(C)C3=O)c2)C1=O`, the melting point is 230 °C.

Compound `COc1cc2ncc(C#N)c(Oc3cccc(Br)c3)c2cc1OC` gave a melting point of 187 to 190 °C. Next, `COc1cc2c(cc1OC)-c1c(C#N)sc(=NC(=O)c3ccccc3)n1CC2`: 274 to 276 °C. Consider `COc1cc2c3c(nc4ccccc4c3c1)-c1ccc(Cl)cc1N2`, for which the melting point fell in the range of 240 to 242 °C. With `CCOC(=O)C1CNc2cc([N+](=O)[O-])ccc2O1` (stereo not drawn) the figure was 88 to 90 °C. `O=C(CCc1ccccc1)Cn1ccnc1`: the melting point is 172 to 173 °C. In turn, `CCc1cc2c(ccc(=O)n2Cc2ccc(Oc3ccccc3CC(=O)O)cc2)c(CC)n1` returned a melting point of 211 to 215 °C.

With `CCCn1c(=O)c2c(N)n(CCCl)nc2n(Cc2ccccc2)c1=O`, the melting point lay within 126 to 128 °C.

With `CCOC(=S)SC(=CC(=O)c1cc(Cl)c(C)c(Cl)c1)C(=O)O`, the melting point fell in the range of 126 to 128 °C. For `Cc1c(O)cc2c(c1C)N(C=O)C(C)C2` (stereo not drawn), the melting point fell in the range of 155 to 159 °C. Next, `COc1cc(-c2ccc3cc4c(cc3c2)C(C)(C)CCC4(C)C)ccc1C(=O)O`: 177 to 178 °C. Next, `O=C(Oc1cccc2c(-c3ccccc3)c3cccc(OC(=O)c4ccccc4)c3c(OC(=O)c3ccccc3)c12)c1ccccc1`: 255 °C; `CC(=O)c1ccc(N2CCN(c3cccc(C)c3)CC2)nn1`: 136 °C. With `CCCCCCCCCCCCCCCCCCOc1ccc(N)cc1` the figure was 95 to 97 °C.

The compound `O=c1c2ccccc2nc(-c2cc(-c3ccc(Cl)cc3)c(N3CCOCC3)s2)n1-c1ccccc1Cl` had a melting point of 215 to 217 °C. Next, `CC(C)Oc1ccc(NC(=O)C2(Cl)CC2)cc1C(F)(F)F`: 106 to 108 °C. Regarding `N#CNC(=NCCN1CCC(C(=O)c2ccc(F)cc2)CC1)Oc1ccccc1`, the melting point was 134 to 136 °C. Next, `Cn1c(=O)[nH]c(=O)c2nc(-c3ccc(/C=C/C(=O)O)cc3)[nH]c21`: 300 °C; `CCCc1c(O)ccc2c1OC(C)(CCC(=O)O)CC2=O` (stereo not drawn): 152 to 153 °C; `CCCCNC(=O)Oc1ccc(Oc2ccc(OC)cc2)cc1`: 63 to 64 °C.

As for `CCCCCCCCON=C(C(=O)OCC)c1csc(N)n1`, the melting point lay in the range of 77 to 78 °C. With `CCOC(=O)N1C=CN(c2ccccc2)C1C#N` (stereo not drawn) the figure was 109 to 111 °C; with `CC(=O)Oc1ccc(S(=O)(=O)c2cnc(C)nc2Nc2c(C)cc(C)cc2C)cc1`, 142 to 144 °C.

The record behind these values is a melting point compilation (Tetko et al.; mined from patent text by program, amines drawn as free bases though some values may be those of a salt).
